In patent US6376670B1, “Quinoline-indole antimicrobial agents, uses and compositions related thereto” (Sepracor Inc., priority 1997, dated 2002):
Like-named read-outs stand apart in the source and are kept apart here.

Legend:
Assay in all cases: Determination of MIC values (BHI broth, 96 well microtiter plate)
Format in all cases: cell-based
[1] = system: methicillin-resistant Staphylococcus aureus (MRSA); settings: Staphylococcus aureus, MRSA, read-out: MIC MRSA
Summary of the method: (§1)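 Broth microdilution in BHI broth used final compound concentrations of 25 to 0.39 μg/mL, diluted from DMSO solutions. Inoculum was 10^5–10^6 cells/mL from cultures grown to a 0.5 McFarland standard. Plates were incubated overnight (~16 h) at 37 °C in about 7–10% CO2; MIC was the lowest concentration with no visible growth.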

Streptococcus pneumoniae = settings: Streptococcus pneumoniae, read-out: MIC S. pneu
Summary of the method: as §1

[2] = system: vancomycin-resistant Enterococcus spp. (VRE); settings: Enterococcus, VRE, read-out: MIC VREF
Summary of the method: as §1

[3] = S. pneu, BHI broth, overnight 37° C.
[4] = VREF, BHI broth, overnight 37° C.

SMILES	MIC ([1]; BHI broth, overnight 37° C.) [µg/mL]	MIC (Streptococcus pneumoniae; [3]) [µg/mL]	MIC [2, 4] [µg/mL]	MIC [1] [µg/mL]	MIC (Streptococcus pneumoniae) [µg/mL]	MIC [2] [µg/mL]
NCCNC(=O)c1cc(-c2c[nH]c3ccc(Br)cc23)nc2c(F)cccc12 [Example 319]	< 7	< 7	< 25	–	–	–
NCCNC(=O)c1cc(-c2c[nH]c3ccc(Br)cc23)nc2cc(F)ccc12 [Example 321]	< 7	< 7	< 7	–	–	–
NCCNC(=O)c1cc(-c2c[nH]c3ccc(Cl)cc23)nc2c(Br)cccc12 [Example 322]	< 7	< 7	< 7	–	–	–
Cn1cc(-c2cc(C(=O)NCCN)c3ccc(F)cc3n2)c2cc(Br)ccc21 [Example 325]	< 7	< 7	< 7	–	–	–
Cn1cc(-c2cc(C(=O)NCC3CCC(CN)CC3)c3ccc(F)cc3n2)c2cc(Br)ccc21 (stereo not drawn) [Example 326]	< 7	< 7	< 7	–	–	–
Cn1cc(-c2cc(C(=O)NCc3cccc(CN)c3)c3ccc(F)cc3n2)c2cc(Br)ccc21 [Example 327]	< 25	< 7	> 25	–	–	–
Cn1cc(-c2cc(C(=O)NCc3ccc(CN)cc3)c3ccc(I)cc3n2)c2cc(Br)ccc21 [Example 328]	> 25	< 7	> 25	–	–	–
Cn1cc(-c2cc(C(=O)NCc3cccc(CN)c3)c3ccc(I)cc3n2)c2cc(Br)ccc21 [Example 330]	< 7	< 7	< 7	–	–	–
Cn1cc(-c2cc(C(=O)NCC3CCC(CN)CC3)c3ccc(I)cc3n2)c2cc(Br)ccc21 (stereo not drawn) [Example 331]	< 7	< 7	< 7	–	–	–
Cn1cc(-c2cc(C(=O)NCC3CCCC(CN)C3)c3ccc(I)cc3n2)c2cc(Br)ccc21 (stereo not drawn) [Example 332]	< 7	< 7	< 7	–	–	–
Cn1cc(-c2cc(C(=O)NC3CCC(N)CC3)c3ccc(I)cc3n2)c2cc(Br)ccc21 (stereo not drawn) [Example 333]	< 7	< 7	< 7	–	–	–
NCc1cccc(CNC(=O)c2cc(-c3c[nH]c4ccc(Br)cc34)nc3cc(Br)ccc23)n1 [Example 334]	< 7	< 7	< 7	–	–	–
OCc1cc(-c2c[nH]c3ccc(Br)cc23)nc2cc(Br)ccc12 [Example 335]	< 7	< 7	< 7	–	–	–
CCOC(=O)n1cc(-c2cc(C(=O)NCc3ccc(CN)cc3)c3cc(C#CCN4CCCCC4)ccc3n2)c2cc(Br)ccc21 [Example 337]	> 25	> 25	> 25	–	–	–
Fc1cccc2[nH]cc(-c3cc(Cl)c4ccccc4n3)c12 [Example 338]	< 25	< 7	> 25	–	–	–
Fc1ccc2[nH]cc(-c3cc(Cl)c4ccccc4n3)c2c1 [Example 339]	< 7	< 7	< 7	–	–	–
Fc1ccc2c(-c3cc(Cl)c4ccccc4n3)c[nH]c2c1 [Example 340]	< 7	< 7	< 7	–	–	–
Clc1cc(-c2c[nH]c3cccc(Cl)c23)nc2ccccc12 [Example 341]	< 7	< 7	< 7	–	–	–
Clc1ccc2c(-c3cc(Cl)c4ccccc4n3)c[nH]c2c1 [Example 343]	< 7	< 7	> 25	–	–	–

SMILES	MIC ([1]; BHI broth, overnight 37° C.) [µg/mL]	MIC (Streptococcus pneumoniae; [3]) [µg/mL]	MIC [2, 4] [µg/mL]	MIC [1] [µg/mL]	MIC (Streptococcus pneumoniae) [µg/mL]	MIC [2] [µg/mL]
Clc1cc(-c2c[nH]c3c(Cl)cccc23)nc2ccccc12 [Example 344]	< 7	< 7	> 25	–	–	–
Clc1cc(-c2c[nH]c3ccc(Br)cc23)nc2ccccc12 [Example 345]	< 7	< 7	> 25	–	–	–
Clc1cc(-c2c[nH]c3c(Br)cccc23)nc2ccccc12 [Example 346]	< 25	< 25	> 25	–	–	–
Oc1ccc2[nH]cc(-c3cc(Cl)c4ccccc4n3)c2c1 [Example 347]	< 25	< 25	> 25	–	–	–
COc1ccc2[nH]cc(-c3cc(Cl)c4ccccc4n3)c2c1 [Example 348]	< 7	< 7	> 25	–	–	–
O=[N+]([O-])c1ccc2[nH]cc(-c3cc(Cl)c4ccccc4n3)c2c1 [Example 349]	> 25	> 25	> 25	–	–	–
N#Cc1ccc2[nH]cc(-c3cc(Cl)c4ccccc4n3)c2c1 [Example 350]	> 25	> 25	> 25	–	–	–
CC(=O)Oc1cccc2[nH]cc(-c3cc(Cl)c4ccccc4n3)c12 [Example 351]	< 7	< 7	> 25	–	–	–
Cc1[nH]c2ccccc2c1-c1cc(Cl)c2ccccc2n1 [Example 352]	< 7	< 7	> 25	–	–	–
Clc1cc(-c2c(-c3ccccc3)[nH]c3ccccc23)nc2ccccc12 [Example 353]	> 25	> 25	> 25	–	–	–
Clc1ccc2nc(-c3c[nH]c4c(Cl)cccc34)ccc2c1 [Example 354]	> 25	> 25	> 25	–	–	–
Clc1ccc2nc(-c3c[nH]c4c(Br)cccc34)ccc2c1 [Example 355]	> 25	> 25	> 25	–	–	–
Cn1cc(-c2cc(C(=O)NCc3cccc(CN)c3)c3cc(I)ccc3n2)c2cc(Br)ccc21 [Example 356]	< 7	< 7	< 7	–	–	–
Cn1cc(-c2cc(C(=O)NCC3CCC(CN)CC3)c3cc(I)ccc3n2)c2cc(Br)ccc21 (stereo not drawn) [Example 357]	< 7	< 7	< 7	–	–	–
Cn1cc(-c2cc(C(=O)NCC3CCCC(CN)C3)c3cc(I)ccc3n2)c2cc(Br)ccc21 (stereo not drawn) [Example 358]	< 7	< 7	< 7	–	–	–
Cn1cc(-c2cc(C(=O)NC3CCC(N)CC3)c3cc(I)ccc3n2)c2cc(Br)ccc21 (stereo not drawn) [Example 360]	< 7	< 7	< 7	–	–	–
CCOc1cc(-c2cn(C(=O)OC(C)(C)C)c3ccc(Br)cc23)nc2ccc(I)cc12 [Example 361]	> 25	> 25	> 25	–	–	–
CC(C)(C)OC(=O)n1cc(-c2ccc3cc(I)ccc3n2)c2cc(Br)ccc21 [Example 362]	> 25	> 25	> 25	–	–	–
Brc1ccc2[nH]cc(-c3ccc4cc(I)ccc4n3)c2c1 [Example 363]	< 7	< 7	< 7	–	–	–

SMILES	MIC ([1]; BHI broth, overnight 37° C.) [µg/mL]	MIC (Streptococcus pneumoniae; [3]) [µg/mL]	MIC [2, 4] [µg/mL]	MIC [1] [µg/mL]	MIC (Streptococcus pneumoniae) [µg/mL]	MIC [2] [µg/mL]
CCOc1cc(-c2c[nH]c3ccc(Br)cc23)nc2ccc(I)cc12 [Example 364]	< 7	< 7	< 25	–	–	–
Cn1cc(-c2cc(C(=O)NCc3ccc(CN)cc3)c3cc(Cl)ccc3n2)c2cc(Br)ccc21 [Example 365]	< 7	< 7	< 7	–	–	–
Cn1cc(-c2cc(C(=O)NCc3cccc(CN)c3)c3cc(Cl)ccc3n2)c2cc(Br)ccc21 [Example 366]	> 25	> 25	> 25	–	–	–
Cn1cc(-c2cc(C(=O)NCC3CCC(CN)CC3)c3cc(Cl)ccc3n2)c2cc(Br)ccc21 (stereo not drawn) [Example 368]	< 7	< 7	< 7	–	–	–
Cn1cc(-c2cc(C(=O)NCC3CCCC(CN)C3)c3cc(Cl)ccc3n2)c2cc(Br)ccc21 (stereo not drawn) [Example 369]	< 7	< 7	< 7	–	–	–
Cn1cc(-c2cc(C(=O)NCCN)c3cc(Cl)ccc3n2)c2cc(Br)ccc21 [Example 370]	< 7	< 7	< 7	–	–	–
Cn1cc(-c2cc(C(=O)NC3CCC(N)CC3)c3cc(Cl)ccc3n2)c2cc(Br)ccc21 (stereo not drawn) [Example 371]	< 7	< 7	< 7	–	–	–
NCc1cc(-c2c[nH]c3ccc(Cl)cc23)nc2ccccc12 [Example 372]	< 7	< 7	< 25	–	–	–
Brc1ccc2c(CNCc3ccccc3)cc(-c3c[nH]c4ccc(Br)cc34)nc2c1 [Example 373]	< 7	< 7	< 7	–	–	–
NCc1ccc(/C=C/c2cc(-c3c[nH]c4ccc(Br)cc34)nc3cc(Br)ccc23)cc1 [Example 374]	< 7	< 7	< 7	–	–	–
CCB(OC)C(=O)c1cc(-c2c[nH]c3ccc(Br)cc23)nc2cc(Br)ccc12 [Example 375]	> 25	> 25	> 25	–	–	–
Cn1cc(-c2cc(C(=O)NCc3ccc(CN)cc3)c3cc(C#CCN4CCCCC4)ccc3n2)c2cc(Br)ccc21 [Example 376]	< 25	< 7	< 25	–	–	–
Cn1cc(-c2cc(C(=O)NCCN)c3cc(C#CCN4CCCCC4)ccc3n2)c2cc(Br)ccc21 [Example 377]	< 7	< 7	< 7	–	–	–
CC(C)(C)OC(=O)n1cc(/C=N/c2cccc(Cl)c2)c2cc(Br)ccc21 [Example 381]	> 25	> 25	> 25	–	–	–
C[Si](C)(C)CCOC(=O)n1cc(C=O)c2cc(Br)ccc21 [Example 382]	–	–	–	> 25	> 25	> 25
C[Si](C)(C)CCOC(=O)n1cc(/C=N/c2ccc(I)cc2)c2cc(Br)ccc21 [Example 383]	–	–	–	> 25	> 25	> 25
Cc1[nH]c2ccc(Cl)cc2c1-c1ccc2cc(Cl)ccc2n1 [Example 384]	< 7	< 7	> 25	–	–	–
O=[N+]([O-])c1cccc2nc(-c3c[nH]c4ccc(Cl)cc34)ccc12 [Example 385]	> 25	> 25	> 25	–	–	–
